The record followed here is US8288371B2, “Ortho pyrrolidine, benzyl-substituted heterocycle CCR1 antagonists for autoimmune diseases and inflammation” (Pharmacopeia, LLC, priority 2007, dated 2012).

A value given as a limit tells only on which side of the number the result lay.

The target in the test is T1, human CCR1 (Homo sapiens, UniProt P32246).
T1 sequence (P32246 1-355): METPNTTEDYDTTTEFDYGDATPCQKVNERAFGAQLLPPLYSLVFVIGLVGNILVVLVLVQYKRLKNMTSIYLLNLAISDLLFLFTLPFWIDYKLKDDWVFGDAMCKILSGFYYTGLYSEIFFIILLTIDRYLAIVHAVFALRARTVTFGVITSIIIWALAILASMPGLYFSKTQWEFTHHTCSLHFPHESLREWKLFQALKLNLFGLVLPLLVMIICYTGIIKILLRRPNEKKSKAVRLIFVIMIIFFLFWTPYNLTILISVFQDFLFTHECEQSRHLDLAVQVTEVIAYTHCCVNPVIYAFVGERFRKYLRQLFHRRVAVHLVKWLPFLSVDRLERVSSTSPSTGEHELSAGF
The experiment in a line: CCR1 binding protocol (SPA, [125I]-MIP-1α displacement). The settings on record: cell membrane expressing human CCR1, 0.1 nM [125I]-MIP-1α, 4 hours at ambient temperature; read-out: Relative potency (IC50). Summed up: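 Human CCR1 membranes (0.5 μg/well) on SPA beads were incubated with compound and 0.1 nM [125I]-MIP-1α (final) for 4 h at ambient temperature. Buffer was Tris pH 7.4 with NaCl, KCl, MnCl and 0.1% BSA. IC50 came from ½-log compound dilutions (10 mM top DMSO stock) by displacement of bound radioligand.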
Consider `Cc1nnc([C@H]2CC(F)CN2C(=O)NC(c2ccccc2)c2ccccc2)n1Cc1ccc(Cl)cc1` (some centres unmarked) [Compound 569], for which the IC50 is 50 to 500 nM.
The same measure for `Cc1nnc([C@H]2CCCN2C(=O)N[C@H]2CCOc3cc(C(F)(F)F)ccc32)n1Cc1cccc(Cl)c1` [Compound 336]: 500 to 5000 nM.
The same measure for `Cc1nnc([C@H]2CCCN2C(=O)Nc2c(Cl)ncnc2N(C)C)n1Cc1ccc(Cl)cc1` [Compound 182]: less than 50 nM; for `Cc1nnc([C@H]2CCCN2C(=O)NCC2CN(S(C)(=O)=O)C2)n1Cc1ccc(Cl)cc1` [Compound 591]: 500 to 5000 nM.
The same measure for `Cc1nnc([C@H]2CCCN2C(=O)Cc2cc(C(F)(F)F)ccc2F)n1Cc1ccc(Cl)cc1` [Compound 510]: less than 50 nM.
For `Cc1noc(-c2ccccc2)c1NC(=O)N1CCC[C@@H]1c1nncn1Cc1ccc(Cl)cc1` [Compound 105], the IC50 was less than 50 nM.
The same measure for `Cc1cc(C(F)(F)F)cc(C)c1NC(=O)N1CCC[C@@H]1c1nccn1Cc1ccc(Cl)cc1` [Compound 30]: less than 50 nM; for `CC(=O)N1CCC(CNC(=O)N2CCC[C@@H]2c2nnc(C)n2Cc2ccc(Cl)cc2)C1` (some centres unmarked) [Compound 592]: 50 to 500 nM; for `Cc1nnc([C@H]2CCCN2C(=O)Nc2cccc(-c3ccnn3C)c2)n1Cc1ccc(Cl)cc1` [Compound 620]: 500 to 5000 nM.
The same measure for `Cc1nnc([C@H]2CCCN2C(=O)C(C)c2cccc(Cl)c2)n1Cc1ccc(Cl)cc1` (some centres unmarked) [Compound 508]: 50 to 500 nM.
For `Cc1nnc([C@H]2CCCN2C(=O)Nc2cccc(S(N)(=O)=O)c2)n1Cc1ccc(Cl)cc1` [Compound 354], the IC50 is 500 to 5000 nM.
To `Cc1nnc([C@H]2CCCN2C(=O)N[C@H]2CCOc3cc(F)ccc32)n1Cc1ccc(Cl)cc1` [Compound 152] belongs less than 50 nM; to `Cc1cccc(C(=O)N(C)C)c1NC(=O)N1CCC[C@@H]1c1nnc(C)n1Cc1ccc(Cl)cc1` [Compound 233], 50 to 500 nM.
To `Cc1nnc([C@H]2CCCN2C(=O)NC2(c3ccc(C(F)(F)F)cc3)CC2)n1Cc1ccc(Cl)cc1` [Compound 263] belongs less than 50 nM; to `Cc1noc(C)c1N/C(=N/C#N)N1CCC[C@@H]1c1nnc(C)n1Cc1ccc(Cl)cc1` [Compound 319], 50 to 500 nM.
The same measure for `Cc1noc(-c2ccccc2)c1NC(=O)N1CCC[C@@H]1c1nccn1Cc1ccc(Cl)cc1` [Compound 34]: less than 50 nM; for `CC[C@H](Nc1c(N2CCC[C@@H]2c2nnc(C)n2Cc2ccc(Cl)cc2)c(=O)c1=O)c1ccc(C(F)(F)F)cc1` [Compound 589]: 50 to 500 nM.
For the compound `Cc1noc(-c2ccccc2)c1NC(=O)N1CCC[C@@H]1c1ncncc1Cc1ccc(Cl)cc1` [Compound 14], the IC50 was less than 50 nM.
The same measure for `Cc1nnc([C@H]2CCCN2C(=O)Nc2cc(C(=O)O)ccc2C(F)(F)F)n1Cc1ccc(Cl)cc1` [Compound 335]: 500 to 5000 nM.
As to `Cc1nnc([C@H]2CCCN2C(=O)N[C@H]2CCc3cc(C(F)(F)F)ccc32)n1Cc1ccc(Cl)cc1` [Compound 169], the IC50 was less than 50 nM.
Regarding `O=C(Nc1ccc(Cl)c(C(F)(F)F)c1)N1CCC[C@@H]1c1nccn1Cc1ccc(Cl)cc1` [Compound 41], the IC50 was in the range of 50 to 500 nM.
To `Cc1nc(C(F)(F)F)ccc1NC(=S)N1CCC[C@@H]1c1nnc(C)n1Cc1ccc(Cl)cc1` [Compound 607] belongs less than 50 nM.
The same measure for `Cc1nnc([C@H]2CCCN2C(=O)N[C@H](C)c2nc3ccccc3o2)n1Cc1ccc(Cl)cc1` [Compound 513]: less than 50 nM; for `Cc1nc(C)c(NC(=O)N2CCC[C@@H]2c2nnc(C)n2Cc2ccc(Cl)cc2)c(C)n1` [Compound 326]: less than 50 nM; for `Cc1nnc([C@H]2CCCN2C(=O)Nc2ccc3c(c2)N(C)C(=O)CO3)n1C1(c2ccc(Cl)cc2)CC1` [Compound 327]: 50 to 500 nM.
To `Cc1nnc([C@H]2CCCN2C(=O)Nc2ccc(Cl)c(S(C)(=O)=O)c2)n1Cc1ccc(Cl)cc1` [Compound 443] belongs 50 to 500 nM.
In the case of `Cc1nnc([C@H]2CCCN2/C(=N\C#N)N[C@H]2CCOc3cc(C(F)(F)F)ccc32)n1Cc1ccc(Cl)cc1` [Compound 260], the IC50 was 50 to 500 nM.
To `O=C(N[C@H]1CCOc2cc(C(F)(F)F)ccc21)N1CCC[C@@H]1c1ncncc1Cc1ccc(Cl)cc1` [Compound 24] belongs 50 to 500 nM; to `CC(=O)O[C@@H]1C[C@H](c2nncn2Cc2ccc(Cl)cc2)N(C(=O)NC(c2ccccc2)c2ccccc2)C1` [Compound 478], 50 to 500 nM.
The same measure for `Cc1nnc([C@H]2CCCN2C(=O)Cc2cccc(C(F)(F)F)c2F)n1Cc1ccc(Cl)cc1` [Compound 505]: 50 to 500 nM.
To `Cc1nnc([C@H]2CCCN2C(=O)N[C@@H]2CCCOc3ccc(Cl)cc32)n1Cc1ccc(Cl)cc1` [Compound 147] belongs less than 50 nM.
Consider `N#Cc1ccc2c(c1)OCC[C@@H]2NC(=O)N1CCC[C@@H]1c1nnc(CO)n1Cc1ccc(Cl)cc1` [Compound 338], for which the IC50 is less than 50 nM.
Consider `CC[C@H](Nc1c(N2CCC[C@@H]2c2nnc(C)n2Cc2ccc(Cl)cc2)c(=O)c1=O)c1cc2ccccc2o1` [Compound 588], for which the IC50 is 50 to 500 nM.
To `Cc1ccc(C(C)(C)NC(=O)N2CCC[C@@H]2c2nnc(C)n2Cc2ccc(Cl)cc2)cc1` [Compound 322] belongs less than 50 nM; to `Cc1nnc([C@H]2CCCN2C(=O)NC2(c3ccccc3)CC2)n1C1(c2ccc(Cl)cc2)CC1` [Compound 329], 50 to 500 nM.
To `Cc1nnc([C@H]2C[C@H](O)CN2C(=O)Cc2cccc(C(F)(F)F)c2)n1Cc1ccc(Cl)cc1` [Compound 499] belongs 50 to 500 nM; to `Cc1nnc([C@H]2CCCN2C(=O)Nc2ccccc2C(F)(F)F)n1Cc1ccc(Cl)cc1` [Compound 146], 50 to 500 nM; to `Cc1nnc([C@H]2CCCN2C(=O)Nc2ccc(Cl)cc2Cl)n1Cc1ccc(Cl)cc1` [Compound 421], 50 to 500 nM.
To `O=C(NC1CCS(=O)(=O)c2ccccc21)N1CCC[C@@H]1c1ncnn1Cc1ccc(Cl)cc1` (some centres unmarked) [Compound 78] belongs 500 to 5000 nM; to `COCc1nnc([C@H]2CCCN2C(=O)NCc2ccc(Cl)cc2Cl)n1Cc1ccc(Cl)cc1` [Compound 462], 50 to 500 nM; to `Cc1cc(C)c(NC(=O)N2CCC[C@@H]2c2nnc(C)n2Cc2ccc(Cl)cc2)c(C(N)=O)c1` [Compound 206], less than 50 nM.
`Cc1nnc([C@H]2CCCN2C(=O)N[C@@H](C)C2CCCCC2)n1Cc1ccc(Cl)cc1` [Compound 184]: the IC50 is 50 to 500 nM.
To `Cc1nnc([C@H]2CCCN2C(=O)Nc2ccc(C#N)c(C(F)(F)F)c2)n1Cc1ccc(Cl)cc1` [Compound 525] belongs 50 to 500 nM.
The same measure for `Cc1nc(Cl)nc(Cl)c1NC(=O)N1CCC[C@@H]1c1nnc(C)n1Cc1ccc(Cl)cc1` [Compound 188]: less than 50 nM; for `Cc1ncc(Cc2ccc(Cl)cc2)c([C@H]2CCCN2C(=O)Nc2c(C)cc(C(F)(F)F)cc2C)n1` [Compound 16]: 50 to 500 nM.
To `COC(=O)c1cc(C)cc(C)c1NC(=O)N1CCC[C@@H]1c1nnc(C)n1Cc1ccc(Cl)cc1` [Compound 211] belongs less than 50 nM.
With `CNC(=O)c1ccc(NC(=O)N2CCC[C@@H]2c2nnc(C)n2Cc2ccc(Cl)cc2)c(C)c1` [Compound 234], the IC50 lay in the range of 50 to 500 nM.
The same measure for `CC[C@@H](NC(=O)N1C[C@H](O)C[C@@H]1c1nnc(C)n1Cc1ccc(Cl)cc1)c1ccc(C)o1` [Compound 501]: 50 to 500 nM.
To `O=C(N[C@H]1CCOc2cc(C(F)(F)F)ccc21)N1CCC[C@@H]1c1nnc(CO)n1Cc1ccc(Cl)cc1` [Compound 308] belongs less than 50 nM.
Consider `Cc1noc(C)c1CC(=O)N1C[C@@H](O)C[C@@H]1c1nnc(C)n1Cc1ccc(Cl)cc1` [Compound 630], for which the IC50 fell in the range of 50 to 500 nM.
To `Cc1ccncc1NC(=O)N1CCC[C@@H]1c1nnc(C)n1Cc1ccc(Cl)cc1` [Compound 225] belongs 50 to 500 nM; to `CC[C@H](NC(=O)N1CCC[C@@H]1c1nnc(C)n1Cc1ccc(Cl)cc1)c1c(C)cc(C(F)(F)F)cc1C` [Compound 119], less than 50 nM.
To `Cc1nnc([C@H]2CCCN2C(=O)Nc2cccc(Cl)c2F)n1Cc1ccc(Cl)cc1` [Compound 416] belongs less than 50 nM; to `CNCc1nnc([C@H]2CCCN2C(=O)N[C@H]2CCOc3cc(C(F)(F)F)ccc32)n1Cc1ccc(Cl)cc1` [Compound 413], 50 to 500 nM.
Take `Cc1noc(-c2ccccc2)c1NC(=O)N1CCC[C@@H]1c1oncc1Cc1ccc(Cl)cc1` [Compound 2]: the IC50 is 50 to 500 nM.
The same measure for `Cc1nnc([C@H]2C[C@H](O)CN2C(=O)Nc2ccc(Cl)nc2Cl)n1Cc1ccc(Cl)cc1` [Compound 492]: 50 to 500 nM; for `Cc1nnc([C@H]2CCCN2C(=O)Nc2ccc(Cl)c(C(F)(F)F)c2)n1Cc1ccc(Cl)cc1` [Compound 441]: 50 to 500 nM; for `Cc1cc(Cl)ccc1NC(=O)N1CCC[C@@H]1c1nnc(C)n1Cc1ccc(Cl)cc1` [Compound 409]: less than 50 nM.
The same measure for `Cc1nnc([C@H]2CCCN2C(=O)NCCC2CCCCO2)n1Cc1ccc(Cl)cc1` (some centres unmarked) [Compound 602]: 50 to 500 nM; for `Cc1nnc([C@H]2CCCN2C(=O)Nc2c(Cl)ncnc2Cl)n1Cc1ccc(Cl)cc1` [Compound 201]: less than 50 nM.
Consider `O=C(N[C@H]1CCCc2ccccc21)N1CCC[C@@H]1c1nccn1Cc1ccc(Cl)cc1` [Compound 29], for which the IC50 is less than 50 nM.
`Cc1nnc([C@H]2CCCN2C(=O)Nc2ccc(-c3ncccn3)cc2)n1Cc1ccc(Cl)cc1` [Compound 550]: the IC50 is 500 to 5000 nM.

One may read the IC50 as the midpoint of a concentration-inhibition curve.
